25 compounds from patent US9409866B2, “Pyridine-2-amides useful as CB2 agonists” (Hoffmann-La Roche Inc., priority 2012, dated 2016) can be followed below.

Assay [1] addresses human CB2 receptors (Homo sapiens (Human), UniProt P34972). Briefly: functional cAMP assay, CHO cells expressing human CB2. It is filed as cell-based. Particulars: read-out: Human CB2 EC50. The essentials:
(§1)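 Compound exposure lasted 30 min at 30 °C in IBMX (1 mM)-containing Krebs Ringer bicarbonate buffer, applied to human CB1- or CB2-expressing CHO cells. Lysates were read by time-resolved FRET cAMP detection, converted via cAMP standard curve (10 μM–0.13 nM), and EC50 values calculated.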
On the technique in general: Changes in cAMP serve as a functional read-out for many G protein-coupled receptors.

Assay [2] deals with human CB1 receptors (Homo sapiens (Human), UniProt P21554). As to the kind of experiment: functional cAMP assay, CHO cells expressing human CB1. The note with it: functional cAMP assay, CHO cells expressing human CB1; read-out: Human CB1 EC50. In kind it is cell-based. The essentials:
as §1

Bounds are passed on as bounds.

human CB1 receptors, sequence (P21554 whole entry): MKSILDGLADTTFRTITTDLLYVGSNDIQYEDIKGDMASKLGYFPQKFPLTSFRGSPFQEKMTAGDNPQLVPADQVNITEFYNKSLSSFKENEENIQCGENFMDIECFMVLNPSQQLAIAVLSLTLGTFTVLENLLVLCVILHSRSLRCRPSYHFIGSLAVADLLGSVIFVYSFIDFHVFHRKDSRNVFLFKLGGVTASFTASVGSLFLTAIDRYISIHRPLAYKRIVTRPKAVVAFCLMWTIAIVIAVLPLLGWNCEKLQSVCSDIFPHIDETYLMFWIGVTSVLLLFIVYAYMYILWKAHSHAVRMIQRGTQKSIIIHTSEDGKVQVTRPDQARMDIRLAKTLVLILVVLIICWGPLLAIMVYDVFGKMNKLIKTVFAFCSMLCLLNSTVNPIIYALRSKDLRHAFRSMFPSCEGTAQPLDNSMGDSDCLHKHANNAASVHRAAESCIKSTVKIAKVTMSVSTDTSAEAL
human CB2 receptors, sequence (P34972 whole entry): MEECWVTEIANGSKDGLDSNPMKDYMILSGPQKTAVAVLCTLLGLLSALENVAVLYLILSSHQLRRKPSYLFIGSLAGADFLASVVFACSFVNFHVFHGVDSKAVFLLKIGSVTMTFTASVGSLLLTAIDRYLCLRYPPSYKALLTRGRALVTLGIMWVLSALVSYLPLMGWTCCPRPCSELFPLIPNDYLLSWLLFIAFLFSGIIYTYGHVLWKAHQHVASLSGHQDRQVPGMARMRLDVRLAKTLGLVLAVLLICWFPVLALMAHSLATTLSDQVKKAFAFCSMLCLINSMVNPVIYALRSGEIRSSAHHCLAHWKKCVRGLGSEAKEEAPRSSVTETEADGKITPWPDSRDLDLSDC

With `Cc1nc(C(C)(CC2CC2)NC(=O)c2cc(O[C@@H](C)C(F)(F)F)c(C3CCC3)cn2)no1` (stereo partly drawn) [Example 110, 5-Cyclobutyl-4-((S)-2,2,2-trifluoro-1-methyl-ethoxy)-pyridine-2-carboxylic acid [2-cyclopropyl-1-methyl-1-(5-methyl-[1,2,4]oxadiazol-3-yl)-ethyl]-amide], the values for the EC50 in assay [1] and in assay [2] were 0.8 nM and 310 nM, respectively.

On to `Cc1nc(C(C)(CS(C)(=O)=O)NC(=O)c2cc(O[C@@H](C)C(F)(F)F)c(C3CCC3)cn2)no1` (stereo partly drawn) [Example 111, 5-Cyclobutyl-4-((S)-2,2,2-trifluoro-1-methyl-ethoxy)-pyridine-2-carboxylic acid [2-methanesulfonyl-1-methyl-1-(5-methyl-[1,2,4]oxadiazol-3-yl)-ethyl]-amide], for which the EC50 in assay [1] is 3 nM; in assay [2] it was 430 nM.

For `Cc1nc(C(C)(COCc2ccccc2)NC(=O)c2cc(OCC(F)(F)F)c(C3CC3)cn2)no1` (centres unmarked) [Example 112, 5-cyclopropyl-N-[2-(5-methyl-1,2,4-oxadiazol-3-yl)-1-phenylmethoxypropan-2-yl]-4-(2,2,2-trifluoroethoxy)pyridine-2-carboxamide], the EC50 in assay [1] was 43.6 nM; in assay [2] it was over 10000 nM.

Regarding `Cc1nc(C(C)(CO)NC(=O)c2cc(OCC(F)(F)F)c(C3CC3)cn2)no1` (centres unmarked) [Example 113, 5-cyclopropyl-N-[1-hydroxy-2-(5-methyl-1,2,4-oxadiazol-3-yl)propan-2-yl]-4-(2,2,2-trifluoroethoxy)pyridine-2-carboxamide], the EC50 in assay [1] was 263 nM; in assay [2] it was over 10000 nM.

With `NC(=O)[C@@H]1CC(F)(F)CN1C(=O)c1cc(OCC2CC2)c(C2CC2)cn1` [Example 114, (2S)-1-[5-cyclopropyl-4-(cyclopropylmethoxy)pyridine-2-carbonyl]-4,4-difluoropyrrolidine-2-carboxamide], the EC50 in assay [1] is 1000 nM; in assay [2] it was over 10000 nM.

For the compound `NC(=O)[C@@H]1CC(F)(F)CN1C(=O)c1cc(OCC(F)(F)F)c(C2CC2)cn1` [Example 115, (2S)-1-[5-cyclopropyl-4-(2,2,2-trifluoroethoxy)pyridine-2-carbonyl]-4,4-difluoropyrrolidine-2-carboxamide], the EC50 in assay [1] is 1260 nM; in assay [2] it was over 10000 nM.

For the compound `Cc1nc(C(C)(CS(C)(=O)=O)NC(=O)c2cc(O[C@@H](C)C(F)(F)F)c(C3CCC3)cn2)no1` (stereo partly drawn) [Example 118, 5-cyclobutyl-N-[2-(5-methyl-1,2,4-oxadiazol-3-yl)-1-methylsulfonylpropan-2-yl]-4-[(2S)-1,1,1-trifluoropropan-2-yl]oxypyridine-2-carboxamide], the EC50 was 1.7 nM in assay [1] and over 10000 nM in assay [2].

For the compound `Cc1nc(C(C)(CS(C)(=O)=O)NC(=O)c2cc(O[C@@H](C)C(F)(F)F)c(C3CCC3)cn2)no1` (stereo partly drawn) [Example 119, 5-cyclobutyl-N-[2-(5-methyl-1,2,4-oxadiazol-3-yl)-1-methylsulfonylpropan-2-yl]-4-[(2S)-1,1,1-trifluoropropan-2-yl]oxypyridine-2-carboxamide], the results for the EC50 in assay [1] and in assay [2] were 9.1 nM and over 10000 nM, respectively.

As for `Cc1nc(C(C)(CC2CC2)NC(=O)c2cc(O[C@@H](C)C(F)(F)F)c(C3CCC3)cn2)no1` (stereo partly drawn) [Example 120, 5-cyclobutyl-N-[1-cyclopropyl-2-(5-methyl-1,2,4-oxadiazol-3-yl)propan-2-yl]-4-[(2S)-1,1,1-trifluoropropan-2-yl]oxypyridine-2-carboxamide], the 50% effective concentration (EC50) is 0.8 nM in assay [1] and over 10000 nM in assay [2].

With `Cc1nc(C(C)(CC2CC2)NC(=O)c2cc(O[C@@H](C)C(F)(F)F)c(C3CCC3)cn2)no1` (stereo partly drawn) [Example 121, 5-cyclobutyl-N-[1-cyclopropyl-2-(5-methyl-1,2,4-oxadiazol-3-yl)propan-2-yl]-4-[(2S)-1,1,1-trifluoropropan-2-yl]oxypyridine-2-carboxamide], the half-maximal effective concentration (EC50) in assay [1] is 0.6 nM; in assay [2], over 10000 nM.

Regarding `NC(=O)[C@H]1CC(F)(F)CN1C(=O)c1cc(OCC(F)(F)F)c(C2CC2)cn1` [Example 122, (2R)-1-[5-cyclopropyl-4-(2,2,2-trifluoroethoxy)pyridine-2-carbonyl]-4,4-difluoropyrrolidine-2-carboxamide], the EC50 in assay [1] was 399 nM; in assay [2] it was over 10000 nM.

With `Cc1nc(C(C)(CC2CC2)NC(=O)c2cc(OCC(F)(F)F)c(C3(O)COC3)cn2)no1` (centres unmarked) [Example 123, N-[1-cyclopropyl-2-(5-methyl-1,2,4-oxadiazol-3-yl)propan-2-yl]-5-(3-hydroxyoxetan-3-yl)-4-(2,2,2-trifluoroethoxy)pyridine-2-carboxamide], the half-maximal effective concentration (EC50) is 998 nM in assay [1] and over 10000 nM in assay [2].

For the compound `Cc1nc(C(C)(CS(C)(=O)=O)NC(=O)c2cc(O[C@@H](C)C(F)(F)F)c(C3(O)CCC3)cn2)no1` (stereo partly drawn) [Example 126, 5-(1-hydroxycyclobutyl)-N-[2-(5-methyl-1,2,4-oxadiazol-3-yl)-1-methylsulfonylpropan-2-yl]-4-[(2S)-1,1,1-trifluoropropan-2-yl]oxypyridine-2-carboxamide], the figures for the EC50 in assay [1] and in assay [2] were 219 nM and over 10000 nM, respectively.

Consider `Cc1nc(C(C)(CS(C)(=O)=O)NC(=O)c2cc(OCC(F)(F)F)c(C3=CCC3)cn2)no1` (centres unmarked) [Example 127, 5-(cyclobuten-1-yl)-N-[2-(5-methyl-1,2,4-oxadiazol-3-yl)-1-methylsulfonylpropan-2-yl]-4-(2,2,2-trifluoroethoxy)pyridine-2-carboxamide], for which the EC50 was 19.6 nM in assay [1] and over 10000 nM in assay [2].

On to `Cc1nc(C(C)(CN2CC(F)(F)C2)NC(=O)c2cc(OCC(F)(F)F)c(C3CC3)cn2)no1` (centres unmarked) [Example 128, 5-cyclopropyl-N-[1-(3,3-difluoroazetidin-1-yl)-2-(5-methyl-1,2,4-oxadiazol-3-yl)propan-2-yl]-4-(2,2,2-trifluoroethoxy)pyridine-2-carboxamide], for which the EC50 in assay [1] is 65.3 nM; in assay [2], over 10000 nM.

With `Cc1nc(C(C)(CS(C)(=O)=O)NC(=O)c2cc(OCC(F)(F)F)c(C3(O)CCC3)cn2)no1` (centres unmarked) [Example 129, 5-(1-hydroxycyclobutyl)-N-[2-(5-methyl-1,2,4-oxadiazol-3-yl)-1-methylsulfonylpropan-2-yl]-4-(2,2,2-trifluoroethoxy)pyridine-2-carboxamide], the results for the EC50 in assay [1] and in assay [2] were 1090 nM and over 10000 nM, respectively.

Consider `Cc1nc(C(C)(CS(C)(=O)=O)NC(=O)c2cc(O[C@@H](C)C(F)(F)F)c(C3(F)CCC3)cn2)no1` (stereo partly drawn) [Example 130, 5-(1-fluorocyclobutyl)-N-[2-(5-methyl-1,2,4-oxadiazol-3-yl)-1-methylsulfonylpropan-2-yl]-4-[(2S)-1,1,1-trifluoropropan-2-yl]oxypyridine-2-carboxamide], for which the results for the EC50 in assay [1] and in assay [2] were 23.4 nM and over 10000 nM, respectively.

Take `Cc1nc(C(C)(CC2CC2)NC(=O)c2cc(OCC(F)(F)F)c(C3(F)COC3)cn2)no1` (centres unmarked) [Example 131, N-[1-cyclopropyl-2-(5-methyl-1,2,4-oxadiazol-3-yl)propan-2-yl]-5-(3-fluorooxetan-3-yl)-4-(2,2,2-trifluoroethoxy)pyridine-2-carboxamide]: the EC50 was 26.3 nM in assay [1] and over 10000 nM in assay [2].

Consider `CC(CS(C)(=O)=O)(NC(=O)c1cc(OCC(F)(F)F)c(C2CC2)cn1)C(N)=O` (centres unmarked) [Example 134, N-(1-amino-2-methyl-3-methylsulfonyl-1-oxopropan-2-yl)-5-cyclopropyl-4-(2,2,2-trifluoroethoxy)pyridine-2-carboxamide], for which the results for the EC50 in assay [1] and in assay [2] were 888 nM and over 10000 nM, respectively.

As to `Cc1nc(C(C)(CS(C)(=O)=O)NC(=O)c2cc(O[C@@H](C)C(F)(F)F)c(C3(F)CCC3)cn2)no1` (stereo partly drawn) [Example 137, 5-(1-fluorocyclobutyl)-N-[2-(5-methyl-1,2,4-oxadiazol-3-yl)-1-methylsulfonylpropan-2-yl]-4-[(2S)-1,1,1-trifluoropropan-2-yl]oxypyridine-2-carboxamide], the results for the EC50 in assay [1] and in assay [2] were 10.5 nM and over 10000 nM, respectively.

In the case of `Cc1nc(C(C)(CS(C)(=O)=O)NC(=O)c2cc(O[C@@H](C)C(F)(F)F)c(C3(F)CCC3)cn2)no1` (stereo partly drawn) [Example 138, 5-(1-fluorocyclobutyl)-N-[2-(5-methyl-1,2,4-oxadiazol-3-yl)-1-methylsulfonylpropan-2-yl]-4-[(2S)-1,1,1-trifluoropropan-2-yl]oxypyridine-2-carboxamide], the EC50 in assay [1] is 21.7 nM; in assay [2], over 10000 nM.

Regarding `Cc1nc(C(C)(NC(=O)c2cc(OCC(F)(F)F)c(C3(F)COC3)cn2)C2CC2)no1` (centres unmarked) [Example 139, N-[1-cyclopropyl-1-(5-methyl-1,2,4-oxadiazol-3-yl)ethyl]-5-(3-fluorooxetan-3-yl)-4-(2,2,2-trifluoroethoxy)pyridine-2-carboxamide], the EC50 in assay [1] is 0.6 nM; in assay [2], over 10000 nM.

For the compound `Cc1nc(C(C)(CC2CC2)NC(=O)c2cc(O[C@@H](C)C(F)(F)F)c(C3(F)COC3)cn2)no1` (stereo partly drawn) [Example 142, N-[1-cyclopropyl-2-(5-methyl-1,2,4-oxadiazol-3-yl)propan-2-yl]-5-(3-fluorooxetan-3-yl)-4-[(2S)-1,1,1-trifluoropropan-2-yl]oxypyridine-2-carboxamide], the figures for the EC50 in assay [1] and in assay [2] were 4.1 nM and over 10000 nM, respectively.

With `C[C@H](Oc1cc(C(=O)NC(C)(C#N)CC2CC2)ncc1C1(F)COC1)C(F)(F)F` (stereo partly drawn) [Example 143, N-(2-cyano-1-cyclopropylpropan-2-yl)-5-(3-fluorooxetan-3-yl)-4-[(2S)-1,1,1-trifluoropropan-2-yl]oxypyridine-2-carboxamide], the EC50 in assay [1] is 246 nM; in assay [2], over 10000 nM.

For `Cc1nc(C(C)(NC(=O)c2cc(O[C@@H](C)C(F)(F)F)c(C3(F)COC3)cn2)C2CC2)no1` (stereo partly drawn) [Example 144, N-[1-cyclopropyl-1-(5-methyl-1,2,4-oxadiazol-3-yl)ethyl]-5-(3-fluorooxetan-3-yl)-4-[(2S)-1,1,1-trifluoropropan-2-yl]oxypyridine-2-carboxamide], the EC50 was 14.1 nM in assay [1] and over 10000 nM in assay [2].

Broadly, the EC50 is the concentration giving half of the maximal effect.
